Consider eleven compounds from ChEMBL document CHEMBL1201862, “PubChem BioAssay data set” (2004).

Holding throughout (assay): NCI tumour cell line growth inhibition, 48 h
The subject of assay [1] is UO-31.
Assay [2] deals with NCI-H460.
Assay [3] relates to KM12.
The test system of assay [4] is UACC-62.
The test system of assay [5] is A549.
Assay [6] deals with HCT-15.
Assay [7] relates to NCI/ADR-RES.
For assay [8], the system named is EKVX.
For assay [9], the system named is A498.
The subject of assay [10] is Malme-3M.
In assay [11] the test system is COLO 205.
The test system of assay [12] is BT-549.
Assay [13] has as its system SW-620.
In assay [14] the test system is PC-3.
Assay [15] relates to SK-MEL-28.
For assay [16], the system named is NCI-H23.
Assay [17] relates to SN12C.
Assay [18] deals with UACC-257.
The subject of assay [19] is RXF 393.

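Interpolation was linear, between the two tested concentrations surrounding the appropriate level; five concentrations were tested over 48 hours in 96-well plates. GI50 is the concentration that inhibits growth by half.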 Calls of active or inactive are those of the source. Cut-off read from the data, not from the text of the source: active = GI50 up to about 1.1 µM and inactive = higher.

On to `C=C(C)c1cc(C(C)(C)C)cc(C(=C)C)c1S(C)(=O)=O`, for which the GI50 in assay [1] is > 100 µM (inactive); in assay [2] it was > 100 µM (inactive); in assay [3], > 100 µM (inactive); in [4] it was > 100 µM (inactive); in [5] it was > 100 µM (inactive); in assay [6], over 100 µM. Also, the GI50 in assay [7] is > 100 µM (inactive); in assay [8], > 100 µM (inactive); in [9] it was > 100 µM (inactive); in assay [10], > 100 µM (inactive); in assay [11] it was 0.596 µM (active); in [12], > 100 µM (inactive). The GI50 in assay [13], in assay [14], in [15], in assay [16] and in assay [17] was > 100 µM (inactive) in each case.

Regarding `O=C1N(C2CCCCC2)C(=O)N1C1CCCCC1`, the GI50 is < 0.0105 µM (active) in assay [1]; 0.321 µM (active) in assay [2]; 0.285 µM (active) in assay [3]; 0.21 µM (active) in [4]; 0.245 µM (active) in assay [5]; 0.257 µM in [6]. For the same compound, the GI50 in assay [7] was 0.133 µM (active); in assay [8], 8.61 µM (inactive); in [9], 0.16 µM (active); in [10], 1.99 µM (inactive); in assay [18], 0.679 µM (active); in assay [11] it was 0.467 µM (active). The GI50 in assay [12] was 0.0272 µM (active); in assay [13], 1.95 µM (inactive); in assay [14], 0.233 µM (active); in assay [15], 1.19 µM (inactive); in [16] it was 0.83 µM (active); in [17], 0.272 µM (active).

Take `O=C1/C(=C\c2ccc(Br)cc2)CCCc2ccccc21`: the GI50 in [1] is 14.6 µM (inactive); in assay [2], 17 µM (inactive); in assay [3], 15.6 µM (inactive); in assay [4], 13.3 µM (inactive); in [5] it was 31.6 µM (inactive); in assay [6] it was 12.4 µM. For the same compound, the GI50 in [7] was 13.4 µM (inactive); in assay [8] it was 17.5 µM (inactive); in [9] it was 23.8 µM (inactive); in assay [19], 21 µM (inactive); in assay [18], 19.5 µM (inactive); in assay [11] it was 17.9 µM (inactive). The GI50 is 24 µM (inactive) in [12]; 16.9 µM (inactive) in assay [13]; 20.3 µM (inactive) in assay [14]; 18.9 µM (inactive) in assay [15]; 17.1 µM (inactive) in assay [16]; 16.5 µM (inactive) in assay [17].

Regarding `CC(=O)Nc1ccc(NS(=O)(=O)c2ccc3nc(C)n(NS(=O)(=O)c4ccc(NC(C)=O)cc4)c(=O)c3c2)cc1`, the GI50 in assay [1] is > 100 µM (inactive); in [2], > 100 µM (inactive); in [3], > 100 µM (inactive); in assay [4], > 100 µM (inactive); in [5], > 100 µM (inactive); in assay [6], over 100 µM. The GI50 in assay [7], in assay [8], in assay [9], in assay [19], in [18] and in [11] was > 100 µM (inactive) each time. Also, the GI50 in [12], in assay [13], in assay [14], in assay [15], in assay [16] and in [17] was > 100 µM (inactive) in each case.

For the compound `CCc1[nH]c(=O)nc(N)c1-c1ccc(N2CCCCC2)c([N+](=O)[O-])c1`, the GI50 is > 100 µM (inactive) in assay [1]; > 100 µM (inactive) in assay [2]; > 100 µM (inactive) in [3]; > 100 µM (inactive) in [4]; > 100 µM (inactive) in assay [5]; over 100 µM in [6]. In addition, the GI50 in [7], in assay [8], in assay [9], in [19], in assay [18] and in assay [11] was > 100 µM (inactive) each time. Moreover, the GI50 in assay [12], in assay [13], in [14], in [15], in [16] and in assay [17] was > 100 µM (inactive) in each case.

For the compound `COc1nc2c(c(=O)[nH]1)N=C(c1ccc(Cl)cc1)CC(c1ccccc1)N2` (stereo not given), the GI50 is 29.6 µM (inactive) in assay [1]; 27.1 µM (inactive) in assay [2]; 37.2 µM (inactive) in assay [3]; 20.2 µM (inactive) in assay [4]; 33.4 µM (inactive) in [5]; 24.2 µM in [6]. Besides, the GI50 was 23.8 µM (inactive) in [7]; 29.6 µM (inactive) in assay [8]; 33.3 µM (inactive) in [9]; 23.9 µM (inactive) in assay [19]; 36.8 µM (inactive) in assay [18]; 38.8 µM (inactive) in assay [11]. Besides, the GI50 was 31.2 µM (inactive) in assay [12]; 44.6 µM (inactive) in [13]; 43.5 µM (inactive) in assay [14]; 17.7 µM (inactive) in [15]; 49.2 µM (inactive) in [16]; 22.7 µM (inactive) in assay [17].

For `C/C=C/c1c(O)c(=O)c2c(OC)cc(OC)c3c4c(OC)cc(OC)c5c(=O)c(O)c(/C=C/C)c(c1c23)c54`, the GI50 was 1.64 µM (inactive) in [1]; 9.48 µM (inactive) in assay [2]; 10.9 µM (inactive) in assay [3]; 6.3 µM (inactive) in assay [4]; 5.97 µM (inactive) in assay [5]; 6.49 µM in [6]. Moreover, the GI50 in [7] was 14.5 µM (inactive); in assay [8], 16.6 µM (inactive); in assay [9], 32.6 µM (inactive); in [10], 6.25 µM (inactive); in [18], 16.5 µM (inactive); in assay [11], 3.7 µM (inactive). The GI50 in assay [12] was 3.1 µM (inactive); in [13], 6.55 µM (inactive); in [14], 6.37 µM (inactive); in [15], 16.6 µM (inactive); in [16], 7.59 µM (inactive); in assay [17] it was 16.5 µM (inactive).

With `O=C(O/C=C\OC1CCCC1(c1ccccc1)c1ccccc1)c1ccccc1` (stereo not given), the GI50 in assay [1] was 1.87 µM (inactive); in assay [2], 25.9 µM (inactive); in assay [3], 14.9 µM (inactive); in assay [4], 6.28 µM (inactive); in [5], 21.4 µM (inactive); in [6] it was 2.23 µM. Further, the GI50 in assay [7] was 2.88 µM (inactive); in assay [8], 17.5 µM (inactive); in assay [9], 23.1 µM (inactive); in assay [19] it was 2.49 µM (inactive); in assay [18], 15.8 µM (inactive); in assay [11], 15.6 µM (inactive). The GI50 was 2.12 µM (inactive) in assay [12]; 2.7 µM (inactive) in assay [13]; 3.34 µM (inactive) in assay [14]; 5.71 µM (inactive) in [15]; 2.19 µM (inactive) in assay [16]; 3.95 µM (inactive) in assay [17].

For the compound `O=C1c2cc(O)c(O)cc2O[C@H](c2ccc(O)c(O)c2)[C@H]1O`, the GI50 in assay [1] was > 100 µM (inactive); in [2] it was 49.7 µM (inactive); in assay [3], > 100 µM (inactive); in [4], > 100 µM (inactive); in assay [5] it was > 100 µM (inactive); in assay [6], over 100 µM. Moreover, the GI50 was > 100 µM (inactive) in [7]; > 100 µM (inactive) in [8]; > 100 µM (inactive) in [9]; 98.9 µM (inactive) in assay [18]; > 100 µM (inactive) in assay [11]; > 100 µM (inactive) in assay [12]. Besides, the GI50 in [13] was > 100 µM (inactive); in [14], > 100 µM (inactive); in [15] it was > 100 µM (inactive); in assay [16] it was 45.4 µM (inactive); in assay [17], > 100 µM (inactive).

For the compound `NCCCCN(CCCN)C(=O)c1ccccc1`, the GI50 in assay [1] is > 100 µM (inactive); in assay [2], > 100 µM (inactive); in [3] it was > 100 µM (inactive); in assay [4], > 100 µM (inactive); in assay [5], > 100 µM (inactive); in assay [6], over 100 µM. Further, the GI50 in assay [7], in assay [8], in [9], in [19], in assay [18] and in assay [11] was > 100 µM (inactive) each time. Further, the GI50 in [12], in assay [13], in assay [14], in [15], in [16] and in assay [17] was > 100 µM (inactive) in each case.

For the compound `O=S(=O)(O)c1cc(O)c(/N=N/c2ccc3ccccc3c2O)c2ccccc12` [ERIOCHROME BLUE BLACK B], the GI50 in assay [1] is 17.1 µM (inactive); in assay [3] it was 30.4 µM (inactive); in [4], 14.8 µM (inactive); in assay [5], 21.1 µM (inactive); in assay [6] it was 23.9 µM; in [7], 15.6 µM (inactive). The GI50 in assay [8] was 12.9 µM (inactive); in assay [10], 0.0753 µM (active); in assay [19], 80.9 µM (inactive); in [18], 25.8 µM (inactive); in assay [11], 28.7 µM (inactive); in assay [12], 37.3 µM (inactive). Also, the GI50 in assay [13] was 33.9 µM (inactive); in assay [14] it was 34.3 µM (inactive); in assay [15] it was 45.6 µM (inactive); in assay [16] it was 15.2 µM (inactive); in assay [17], 23.4 µM (inactive).
